Reference: ChEMBL document CHEMBL1154508, “Discovery of GSK345931A: An EP(1) receptor antagonist with efficacy in preclinical models of inflammatory pain” (Bioorg Med Chem Lett, 2009)

Assays:
[1] = target: T1, Prostaglandin E2 receptor EP1 subtype (Homo sapiens, UniProt P34995); assay: Binding affinity to EP1 receptor
T1 sequence (P34995 whole entry): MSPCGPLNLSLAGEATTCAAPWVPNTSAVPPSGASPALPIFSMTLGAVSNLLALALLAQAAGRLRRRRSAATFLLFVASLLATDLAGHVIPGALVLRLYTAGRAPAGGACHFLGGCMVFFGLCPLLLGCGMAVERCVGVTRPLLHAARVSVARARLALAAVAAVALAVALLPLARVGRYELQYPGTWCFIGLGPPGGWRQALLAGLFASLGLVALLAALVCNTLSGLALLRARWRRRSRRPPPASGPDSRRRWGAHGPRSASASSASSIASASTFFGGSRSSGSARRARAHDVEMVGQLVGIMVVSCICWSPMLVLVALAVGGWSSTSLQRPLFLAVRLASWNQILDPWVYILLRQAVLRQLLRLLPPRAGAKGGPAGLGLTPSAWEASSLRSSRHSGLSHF

Liver microsomes [2] = assay: Metabolic stability assessed as intrinsic clearance per gram of rat liver microsomes; type: ADME, Microsome
[3] = target: T1, Prostaglandin E2 receptor EP1 subtype; assay: Antagonist activity at EP1 receptor assessed as calcium mobilization by FLIPR assay; type: functional
Liver microsomes [4] = assay: Metabolic stability assessed as intrinsic clearance per gram of human liver microsomes; type: ADME, Microsome
[5] = Ratio of drug level in rat brain to blood at 0.28 mg/kg/hr, iv for 18 hrs at steady state; type: ADME, organism-based; design: route intravenous
Cytochrome P450 3A4 = Cytochrome P450 3A4 (Homo sapiens, UniProt P08684); assay: Inhibition of CYP3A4; type: ADME
Cytochrome P450 3A4, sequence (P08684 whole entry): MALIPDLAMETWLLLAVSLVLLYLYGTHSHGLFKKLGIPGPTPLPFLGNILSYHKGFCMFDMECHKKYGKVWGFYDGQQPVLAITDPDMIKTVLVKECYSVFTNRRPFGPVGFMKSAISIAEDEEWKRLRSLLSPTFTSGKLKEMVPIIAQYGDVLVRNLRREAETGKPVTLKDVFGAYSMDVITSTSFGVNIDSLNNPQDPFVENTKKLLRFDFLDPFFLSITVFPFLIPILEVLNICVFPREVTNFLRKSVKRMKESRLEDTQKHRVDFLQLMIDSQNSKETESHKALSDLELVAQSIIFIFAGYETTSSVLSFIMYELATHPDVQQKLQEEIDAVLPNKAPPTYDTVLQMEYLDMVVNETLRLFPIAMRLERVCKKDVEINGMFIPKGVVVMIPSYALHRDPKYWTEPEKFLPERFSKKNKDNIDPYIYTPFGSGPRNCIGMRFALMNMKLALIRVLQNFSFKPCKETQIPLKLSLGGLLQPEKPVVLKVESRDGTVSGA

Cytochrome P450 1A2 = target: T2, Cytochrome P450 1A2 (Homo sapiens, UniProt P05177); assay: Inhibition of CYP1A2; type: ADME
T2 sequence (P05177 whole entry): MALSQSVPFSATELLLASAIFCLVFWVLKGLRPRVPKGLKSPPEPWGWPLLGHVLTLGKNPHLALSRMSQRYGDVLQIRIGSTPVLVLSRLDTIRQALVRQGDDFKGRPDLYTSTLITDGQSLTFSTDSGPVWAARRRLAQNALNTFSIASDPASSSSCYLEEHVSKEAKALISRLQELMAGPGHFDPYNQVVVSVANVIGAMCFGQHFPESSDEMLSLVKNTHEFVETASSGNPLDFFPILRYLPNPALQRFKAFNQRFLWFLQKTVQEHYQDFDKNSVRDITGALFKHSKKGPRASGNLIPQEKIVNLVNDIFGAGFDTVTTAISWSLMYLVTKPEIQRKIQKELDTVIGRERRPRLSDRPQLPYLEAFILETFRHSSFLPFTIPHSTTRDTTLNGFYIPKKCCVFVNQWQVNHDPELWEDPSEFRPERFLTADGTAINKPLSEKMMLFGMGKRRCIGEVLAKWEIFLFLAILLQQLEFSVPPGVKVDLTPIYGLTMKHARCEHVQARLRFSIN

Cytochrome P450 2D6 = Cytochrome P450 2D6 (Homo sapiens, UniProt P10635); assay: Inhibition of CYP2D6; type: ADME
Cytochrome P450 2D6, sequence (P10635 whole entry): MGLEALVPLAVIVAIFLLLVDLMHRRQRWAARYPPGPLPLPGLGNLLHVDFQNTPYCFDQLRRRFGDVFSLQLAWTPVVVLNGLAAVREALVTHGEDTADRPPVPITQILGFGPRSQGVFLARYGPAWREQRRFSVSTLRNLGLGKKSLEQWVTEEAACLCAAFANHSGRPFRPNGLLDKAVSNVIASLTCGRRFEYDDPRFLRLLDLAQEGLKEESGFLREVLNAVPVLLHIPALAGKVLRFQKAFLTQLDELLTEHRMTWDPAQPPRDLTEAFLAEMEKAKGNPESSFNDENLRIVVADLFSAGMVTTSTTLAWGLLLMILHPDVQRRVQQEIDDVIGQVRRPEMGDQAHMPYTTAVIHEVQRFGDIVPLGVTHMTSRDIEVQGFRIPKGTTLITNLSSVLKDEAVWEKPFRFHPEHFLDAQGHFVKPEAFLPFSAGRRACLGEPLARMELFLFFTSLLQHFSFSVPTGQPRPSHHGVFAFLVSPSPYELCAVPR

Cytochrome P450 2C9 = Cytochrome P450 2C9 (Homo sapiens, UniProt P11712); assay: Inhibition of CYP2C9; type: ADME
Cytochrome P450 2C9, sequence (P11712 whole entry): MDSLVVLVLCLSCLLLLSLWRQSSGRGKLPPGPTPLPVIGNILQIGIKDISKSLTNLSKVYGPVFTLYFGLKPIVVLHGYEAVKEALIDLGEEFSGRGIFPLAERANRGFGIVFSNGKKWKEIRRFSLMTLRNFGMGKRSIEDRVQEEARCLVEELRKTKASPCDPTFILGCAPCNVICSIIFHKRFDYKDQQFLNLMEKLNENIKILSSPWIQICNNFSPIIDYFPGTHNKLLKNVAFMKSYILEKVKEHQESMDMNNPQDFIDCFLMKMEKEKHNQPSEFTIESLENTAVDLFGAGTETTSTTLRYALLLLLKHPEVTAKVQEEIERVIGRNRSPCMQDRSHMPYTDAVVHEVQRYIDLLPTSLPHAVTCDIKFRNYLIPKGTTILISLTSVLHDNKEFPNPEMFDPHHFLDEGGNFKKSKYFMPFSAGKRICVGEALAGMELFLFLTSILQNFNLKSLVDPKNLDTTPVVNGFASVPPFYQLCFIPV

Cytochrome P450 2C19 = Cytochrome P450 2C19 (Homo sapiens, UniProt P33261); assay: Inhibition of CYP2C19; type: ADME
Cytochrome P450 2C19, sequence (P33261 whole entry): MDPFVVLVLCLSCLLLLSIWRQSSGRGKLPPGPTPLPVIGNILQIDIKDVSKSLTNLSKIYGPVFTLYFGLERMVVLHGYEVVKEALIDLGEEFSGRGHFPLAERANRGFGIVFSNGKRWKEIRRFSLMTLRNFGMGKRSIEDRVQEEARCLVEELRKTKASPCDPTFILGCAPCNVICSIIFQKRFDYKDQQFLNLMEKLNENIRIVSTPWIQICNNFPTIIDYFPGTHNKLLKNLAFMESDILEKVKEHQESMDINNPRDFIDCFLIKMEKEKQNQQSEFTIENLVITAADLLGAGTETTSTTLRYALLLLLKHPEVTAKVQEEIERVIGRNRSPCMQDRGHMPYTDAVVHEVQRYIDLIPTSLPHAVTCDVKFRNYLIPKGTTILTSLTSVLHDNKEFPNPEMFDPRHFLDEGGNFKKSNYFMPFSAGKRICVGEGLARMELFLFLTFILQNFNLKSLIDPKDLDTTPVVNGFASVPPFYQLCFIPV

Row | IC50 [1] [nM] | SMILES | other results
1 | 10 | O=C(O)c1cccc(-c2ccccc2-c2cc(Cl)ccc2OCc2ccccc2)n1 | –
2 | 10 | CC(=O)Nc1cc(C(=O)O)cc(-c2ccccc2-c2cc(Cl)ccc2OCc2ccccc2)c1 | –
3 | 126 | O=C(O)c1cc(-c2ccccc2-c2ccccc2OCc2ccccc2)ccc1Cl | –
4 | 316 | O=C(O)c1cccc(-c2ccccc2-c2ccc(Cl)cc2OCc2ccccc2)c1 | –
5 | 50.1 | O=C(O)c1cccc(-c2ccccc2-c2cc(Cl)ccc2OCc2ccc(Br)cc2F)n1 | –
6 | 20 | O=C(O)c1ccccc1-c1ccccc1-c1cc(Cl)ccc1OCc1ccccc1 | –
7 | 39.8 | O=C(O)c1cccc(-c2ccccc2-c2cc(Cl)ccc2OCc2ccccc2F)n1 | –
8 | – | O=C(O)c1cccc(-c2ccccc2-c2cc(Cl)ccc2OCc2ccccc2)c1 | CL (Liver microsomes [2]): <= 0.5 ml/min/g; Ki [3]: 31.6 nM; CL (Liver microsomes [4]): < 0.5 mL/min/g
9 | 100 | Cc1cccc(-c2cc(Cl)ccc2OCc2ccccc2)c1-c1cccc(C(=O)O)c1 | –
10 | 79.4 | O=C(O)c1ccc(F)c(-c2ccccc2-c2ccccc2OCc2ccccc2)c1 | –
11 | 2 | CCCC(=O)Nc1cc(C(=O)O)cc(-c2ccccc2-c2cc(Cl)ccc2OCc2ccccc2)c1 | –
12 | 3.98 | COCC(=O)Nc1cc(C(=O)O)cc(-c2ccccc2-c2cc(Cl)ccc2OCc2ccccc2)c1 | –
13 | 63.1 | O=C(O)c1cc(F)cc(-c2ccccc2-c2ccccc2OCc2ccccc2)c1 | –
14 | 20 | O=C(O)c1cccc(-c2ccccc2-c2cc(Cl)ccc2OCc2ccc(Cl)cc2F)n1 | –
15 | 251 | CCCOc1ccc(Cl)cc1-c1ccccc1-c1cccc(C(=O)O)n1 | –
16 | 501 | Cc1c(C(=O)O)cccc1-c1ccccc1-c1ccccc1OCc1ccccc1 | –
17 | 100 | CCCCOc1ccc(Cl)cc1-c1ccccc1-c1cccc(C(=O)O)n1 | –
18 | > 1000 | Cc1ccc(-c2cccc(C(=O)O)c2)c(-c2cc(Cl)ccc2OCc2ccccc2)c1 | –
19 | 5.01 | O=C(O)c1cccc(-c2ccccc2-c2cc(Cl)ccc2OCc2ccc(F)cc2)n1 | –
20 | 3.98 | O=C(O)c1cccc(-c2ccccc2-c2cc(Cl)ccc2OCc2ccc(F)cc2F)n1 | –
21 | 6.31 | CCC(=O)Nc1cc(C(=O)O)cc(-c2ccccc2-c2cc(Cl)ccc2OCc2ccccc2)c1 | –
22 | 20 | O=C(O)c1cccc(-c2ccccc2-c2ccccc2OCc2ccccc2)c1 | –
23 | > 1000 | Cc1ccc(-c2cc(Cl)ccc2OCc2ccccc2)c(-c2cccc(C(=O)O)c2)c1 | –
24 | 12.6 | O=C(O)c1cccc(-c2ccccc2-c2cc(Cl)ccc2OCc2c(F)cc(F)cc2F)n1 | –
25 | – | O=C(O)c1cccc(C2=C(c3cc(Cl)ccc3OCc3ccc(F)cc3F)CCC2)n1 | Kp at 18 h [5]: 0.2; IC50 (Cytochrome P450 3A4): 89000 nM; IC50 (Cytochrome P450 1A2): > 100000 nM; IC50 (Cytochrome P450 2D6): > 100000 nM; IC50 (Cytochrome P450 2C9): 25000 nM; IC50 (Cytochrome P450 2C19): 62000 nM
26 | > 1000 | O=C(O)c1cccc(-c2cc(Cl)ccc2-c2cc(Cl)ccc2OCc2ccccc2)c1 | –
27 | 158 | O=C(O)c1cccc(-c2ccccc2-c2cc(Cl)ccc2OCC2CCCC2)n1 | –
28 | 10 | CC(C)C(=O)Nc1cc(C(=O)O)cc(-c2ccccc2-c2cc(Cl)ccc2OCc2ccccc2)c1 | –
29 | 794 | O=C(O)c1ccc(-c2ccccc2-c2cc(Cl)ccc2OCc2ccccc2)cc1 | –
30 | 63.1 | O=C(O)c1cccc(-c2ccccc2-c2cc(Cl)ccc2OCc2ccc(F)cc2Cl)n1 | –
